The logP is the decadic logarithm of the partition coefficient of the neutral form, usually between octanol and water. The low end stands for lower lipophilicity, the high end for higher lipophilicity.

In the case of `CCN(CC)C(=O)NS(=O)(=O)c1ccccc1`, the logP worked out at 0.99.

With `NC(=O)NS(=O)(=O)c1ccccc1`, the logP worked out at 0.28.

Turning to `CNC(=O)NS(=O)(=O)c1cccnc1`, the logP was -0.45. In the case of `CCNC(=O)NS(=O)(=O)c1ccccc1` it was 0.9; in that of `CC(C)NC(=O)NS(=O)(=O)c1ccccc1`, 1.34; in that of `CNC(=O)N(C)S(=O)(=O)Cc1ccccc1`, 1.18. The molecule `CNC(=O)NS(=O)(=O)Cc1ccccc1` returned a logP of 0.54.

Consider `CNC(=O)NS(=O)(=O)c1ccccc1`, for which the logP was found to be 0.44. In turn, `CC(C)(C)NC(=O)NS(=O)(=O)c1ccccc1` gave a logP of 1.95. For `CCCNC(=O)NS(=O)(=O)c1ccccc1` the value was 1.44. In turn, `CN(C)C(=O)NS(=O)(=O)c1ccccc1` returned a lipophilicity (logP) of 0.28. For `CNC(=O)N(C)S(=O)(=O)c1cccnc1` the value was 0.42. In turn, `NC(=O)NS(=O)(=O)c1cccnc1` came in with a logP of -0.65. The molecule `CN(C)C(=O)NS(=O)(=O)Cc1ccccc1` yielded a logP of 0.54.
